Holding throughout (experiment): Cell death with Co-h substrate by cell type (SYTOX Green or EthD-1/DAPI)
Common to all, as to type: cell-based, human

One test has as its system MDA-MB-231. To be noted: MDA-MB-231, protein 10 μM, Co-h 150 μM for 5 minutes. The method, then:
(§1) The cells were seeded at 5×10^5 cells/mL in 96-well plates (SPL Cell Culture Plate, 96 well (SPL, Cat #30096)), and cultured at 37° C. for 24 hours (overnight). After the culture for 24 hours, the cells were washed with FBS & phenol red-free media, and 100 μL of FBS & phenol red-free media containing a purified protein (final concentration: 10 μM) was added, followed by reaction at 37° C. for 24 hours.
(§2) Subsequently, the cells were washed with FBS & phenol red-free media, and 100 μL of FBS & phenol red-free media was added. 100 μL of FBS & Phenol red-free media (RPMI) containing a Co-h substrate solution (final concentration: 150 μM) was added, followed by reaction at 37° C. for 5 minutes.
(§3) After the reaction, 50 μL of SYTOX Green (final concentration: 261 nM) or 90 μL of ethidium homodimer (EthD-1) (final concentration 1×), which stains DNA of dead cells, was added, followed by reaction at 37° C. for 30 minutes. 10 μL of DAPI staining DNA of live cells was added, followed by reaction for 5 minutes. Cell death was confirmed by observing KillerRed, SYTOX Green, MiniSOG, EthD-1 and DAPI fluorescence using a confocal microscope.

A further test has as its system MCF-7. To be noted: MCF-7, protein 10 μM, Co-h 150 μM for 5 minutes. How it is done: as §1, §2, §3
The next test relates to MDA-MB-435. To be noted: MDA-MB-435, protein 10 μM, Co-h 150 μM for 5 minutes. How it is done:
as §1, §2, §3

The next test concerns SK-BR-3. The note with it: SK-BR-3, protein 10 μM, Co-h 150 μM for 5 minutes. The method, then: as §1, §2, §3

Take “RLuc8-MS: fusion protein of RLuc8 and MiniSOG without lead peptide, 53 kDa”: the “cell death with Co-h substrate” value in the test with MDA-MB-231, in the test on MCF-7, in the test with MDA-MB-435 and with SK-BR-3 was “none of the six breast cancer cell lines were killed” in each case.

(Values after patent US20220040304A1, “A COMPOSITION FOR CANCER CELL DEATH AND ITS USE” (Industry-University Cooperation Foundation Hanyang …, priority 2018, published 2022).)
